Experimental data published in patent publication US20240216357A1 (SICHUAN HUIYU PHARMACEUTICAL CO., LTD., priority 2021, published 2024).
Counter-ions that a name gives are not always drawn. Like-named read-outs stand apart in the source and are kept apart here.

Columns and labels:
NCI-H1417 cells = experiment: In vitro cell proliferation detection (CellTiter-Glo, 7 days); assay type: cell-based; conditions: Homo sapiens, 168 h; NCI-H1417 cells, 7 days, CellTiter-Glo; read-out: NCI-H1417 proliferation inhibition IC50
LSD1 = LSD1 (Homo sapiens (Human), UniProt O60341); experiment: LSD1 enzyme activity detection (HTRF); assay type: biochemical; conditions: read-out: Inhibition of enzymatic activity of LSD1 IC50

IC50 (NCI-H1417 cells) [nM]	IC50 (LSD1; HTRF, H3K4me1 substrate) [nM]	IC50 (LSD1) [nM]	SMILES
42.6	3.2 ± 0.37	–	COc1ccc(-c2c(C(N)=O)nc(N3CCC(N)CC3)nc2-c2ccc(C#N)c(F)c2)cc1F [Example 110, 2-(4-aminopiperidin-1-yl)-6-(4-cyano-3-fluorophenyl)-5-(3-fluoro-4-methoxyphenyl)pyrimidine-4-carboxamide hydrochloride]
> 1000	–	67	CNC1CCCN(c2nc(OC)c(-c3ccc(OC)c(F)c3)c(-c3ccc(C#N)c(F)c3)n2)C1 (centres unmarked) [Example 114, 2-fluoro-4-(5-(3-fluoro-4-methoxyphenyl)-6-methoxy-2-(3-(methylamino)piperidin-1-yl)pyrimidin-4-yl)benzonitrile hydrochloride]
21.3	15.9	–	CC(C)(O)C#Cc1ccc(-c2c(-c3ccc(C#N)c(F)c3)nc(N3CCC(N)CC3)n3ccnc23)cc1F [Example 126, 4-(5-(4-aminopiperidin-1-yl)-8-(3-fluoro-4-(3-hydroxy-3-methyl-1-alkynyl-1-yl)phenyl)imidazolo[1,2-c]pyrimidin-7-yl)-2-fluorobenzonitrile hydrochloride]
135	34.4	–	CC(C)(O)Cn1ncc2cc(F)c(-c3c(-c4ccc(C#N)c(F)c4)nc(N4CCC(N)CC4)n4ccnc34)cc21 [Example 127, 4-(5-(4-aminopiperidin-1-yl)-8-(5-fluoro-1-(2-hydroxy-2-methylpropyl)-1H-indazo-6-yl)imidazolo[1,2-c]pyrimidin-7-yl)-2-fluorobenzonitrile hydrochloride]
112	0.61 ± 0.13	–	N#Cc1ccc(-c2nc(N3CCC(N)CC3)n3ccnc3c2-c2ccc3oc(=O)[nH]c3c2)cc1F [Example 129, 4-(5-(4-aminopiperidin-1-yl)-8-(2-oxo-2,3-dihydrobenzo[d]oxazol-5-yl)imidazolo[1,2-c]pyrimidin-7-yl)-2-fluorobenzonitrile]
2.83	0.69 ± 0.18	–	COc1ccc(-c2c(-c3ccc(C#N)c(F)c3)nc(N3CCC[C@@H](N)C3)n3ccnc23)cc1O [Example 139, (R)-4-(5-(3-aminopiperidin-1-yl)-8-(3-hydroxy-4-methoxyphenyl)imidazolo[1,2-c]pyrimidin-7-yl)-2-fluorobenzonitrile hydrochloride]
4.82	5.5 ± 2.9	–	COc1ccc(-c2c(-c3ccc(C#N)c(F)c3)nc(N3CCC(C)(N)CC3)n3ccnc23)cc1O [Example 143, 4-(5-(4-amino-4-methylpiperidin-1-yl)-8-(3-hydroxy-4-methoxyphenyl)imidazolo[1,2-c]pyrimidin-7-yl)-2-fluorobenzonitrile]
31.2	20.3	–	Cc1noc2cc(-c3c(-c4ccc(C#N)c(F)c4)nc(N(C)CCCN)n4ccnc34)c(F)cc12 [Example 150]
31.6	5.2 ± 0.5	–	CN(CCCN)c1nc(-c2ccc(C#N)c(F)c2)c(-c2ccc(OC(F)(F)F)c(O)c2)c2nccn12 [Example 153, 4-(5-((3-aminopropyl) (methyl)amino)-8-(3-hydroxy-4-(trifluoromethoxy)phenyl)imidazolo [1,2-c]pyrimidin-7-yl)-2-fluorobenzonitrile]

The next lines start with the compound.

SMILES	IC50 (NCI-H1417 cells) [nM]	IC50 (LSD1; HTRF, H3K4me1 substrate) [nM]	IC50 (LSD1) [nM]
COc1ccc(-c2c(OCC3CCC3)cc(N3CCC(N)CC3)nc2-c2ccc(C#N)c(F)c2)cc1O [Example 107, 4-(6-(4-aminopiperidin-1-yl)-4-(cyclobutylmethoxy)-3-(3-hydroxy-4-methoxyphenyl)pyridin-2-yl)-2-fluorobenzonitrile hydrochloride]	8.35	2.5 ± 1.7	–
COc1ccc(-c2c(OCC3CC3)cc(N3CCC(N)CC3)nc2-c2ccc(C#N)c(F)c2)cc1O [Example 108, 4-(6-(4-aminopiperidin-1-yl)-4-(cyclopropylmethoxy)-3-(3-hydroxy-4-methoxyphenyl)pyridin-2-yl)-2-fluorobenzonitrile hydrochloride]	4.02	1.5 ± 0.7	–
COc1ccc(-c2c(OCC3COC3)cc(N3CCC(N)CC3)nc2-c2ccc(C#N)c(F)c2)cc1O [Example 109, 4-(6-(4-aminopiperidin-1-yl)-3-(3-hydroxy-4-methoxyphenyl)-4-(oxetane-3-yl-methoxy)pyridin-2-yl)-2-fluorobenzonitrile hydrochloride]	16	4 ± 1.7	–
CNC1CCCN(c2nc(-c3ccc(C#N)c(F)c3)c(-c3ccc(OC)c(F)c3)c3nccn23)C1 (centres unmarked) [Example 119, 2-fluoro-4-(8-(3-fluoro-4-methoxyphenyl)-5-(3-(methylamino)piperidin-1-yl)imidazolo[1,2-c]pyrimidin-7-yl) benzonitrile]	39.1	9.54 ± 1.2	–
COc1ccc(C#Cc2c(-c3ccc(C#N)c(F)c3)nc(N3CCC(N)CC3)n3ccnc23)cc1F [Example 122, 4-(5-(4-aminopiperidin-1-yl)-8-(3-fluoro-4-methoxyphenyl)ethynyl)imidazolo [1,2-c]pyrimidin-7-yl)-2-fluorobenzonitrile hydrochloride]	30.2	8.68 ± 0.76	–
N#Cc1ccc(-c2nc(N3CCC(N)CC3)n3ccnc3c2-c2ccc3[nH]nc(Cl)c3c2)cc1F [Example 123, 4-(5-(4-aminopiperidin-1-yl)-8-(3-chloro-1H-indazolo-5-yl)imidazolo[1,2-c]pyrimidin-7-yl)-2-fluorobenzonitrile]	47.6	28.7	–
N#Cc1ccc(-c2nc(N3CCC(N)CC3)n3ccnc3c2-c2ccc(OC(F)(F)F)c(F)c2)cc1F [Example 130, 4-(5-(4-aminopiperidin-1-yl)-8-(3-fluoro-4-(trifluoromethoxy)phenyl)imidazolo [1,2-c]pyrimidin-7-yl)-2-fluorobenzonitrile]	17.6	10.7	–
N#Cc1ccc(-c2nc(N3CCC(N)CC3)n3ccnc3c2-c2ccn3ccnc3c2)cc1F [Example 131, 4-(5-(4-aminopiperidin-1-yl)-8-(imidazolo [1,2-a]pyridin-7-yl)imidazolo[1,2-c]pyrimidin-7-yl)-2-fluorobenzonitrile]	80.7	4.46 ± 0.09	–
CNC1CCN(c2nc(-c3ccc(C#N)c(F)c3)c(-c3ccc(OC)c(O)c3)c3nccn23)CC1 [Example 138, 2-fluoro-4-(8-(3-hydroxy-4-methoxyphenyl)-5-(4-(methylamino)piperidin-1-yl)imidazolo[1,2-c]pyrimidin-7-yl)benzonitrile hydrochloride]	0.305	0.1 ± 0.05	–
COc1ccc(-c2c(-c3ccc(C#N)c(F)c3)nc(N3CCC(N(C)C)CC3)n3ccnc23)cc1O [Example 140, 4-(5-(4 (dimethylamino)piperidin-1-yl)-8-(3-hydroxy-4-methoxyphenyl)imidazolo[1,2-c]pyrimidin-7-yl)-2-fluorobenzonitrile]	0.2 ± 0.15	0.4 ± 0.1	–
N#Cc1ccc(-c2nc(N3CCC(N)CC3)n3ccnc3c2-c2ccc(Cl)c(O)c2)cc1F [Example 142, 4-(5-(4-aminopiperidin-1-yl)-8-(4-chloro-3-hydroxyphenyl)imidazolo[1,2-c]pyrimidin-7-yl)-2-fluorobenzonitrile formate]	0.214	0.198	–
COc1ccc(-c2c(-c3ccc(C#N)c(F)c3)nc(N(C)CCCN)n3ccnc23)cc1O [Example 144, 4-(5-((3-aminopropyl) (methyl)amino)-8-(3-hydroxy-4-methoxyphenyl)imidazolo[1,2-c]pyrimidin-7-yl)-2-fluorobenzonitrile]	18.2	1.6 ± 0.2	–
Cc1ccc(-c2c(-c3ccc(C#N)c(F)c3)nc(N3CCC(C)(N)CC3)n3ccnc23)cc1O [Example 145, 4-(5-(4-amino-4-methylpiperidin-1-yl)-8-(3-hydroxy-4-methylphenyl)imidazolo[1,2-c]pyrimidin-7-yl)-2-fluorobenzonitrile]	2.42	1 ± 0.2	–
Cc1ccc(-c2c(-c3ccc(C#N)c(F)c3)nc(N(C)CCCN)n3ccnc23)cc1O [Example 146, 4-(5-((3-aminopropyl) (methyl)amino)-8-(3-hydroxy-4-methylphenyl)imidazolo[1,2-c]pyrimidin-7-yl)-2-fluorobenzonitrile]	8.9	0.5 ± 0.2	–
CC1(N)CCN(c2nc(-c3ccc(C#N)c(F)c3)c(-c3ccc(F)c(O)c3)c3nccn23)CC1 [Example 147, 4-(5-(4-amino-4-methylpiperidin-1-yl)-8-(4-fluoro-3-hydroxyphenyl)imidazolo[1,2-c]pyrimidin-7-yl)-2-fluorobenzonitrile]	8	11.5 ± 4.4	–
CN(CCCN)c1nc(-c2ccc(C#N)c(F)c2)c(-c2ccc(F)c(O)c2)c2nccn12 [Example 148, 4-(5-((3-aminopropyl) (methyl)amino)-8-(4-fluoro-3-hydroxyphenyl)imidazolo [1,2-c]pyrimidin-7-yl)-2-fluorobenzonitrile]	78	6.9 ± 1.3	–
Cc1noc2cc(-c3c(-c4ccc(C#N)c(F)c4)nc(N4CCC(C)(N)CC4)n4ccnc34)c(F)cc12 [Example 149, 4-(5-(4-amino-4-methylpiperidin-1-yl)-8-(5-fluoro-3-methylbenzo [d]isoxazol-6-yl)imidazolo[1,2-c]pyrimidin-7-yl)-2-fluorobenzonitrile]	12.8	33.2	–
CC1(N)CCN(c2nc(-c3ccc(C#N)c(F)c3)c(-c3ccc(OC(F)(F)F)c(O)c3)c3nccn23)CC1 [Example 152, 4-(5-(4-amino-4-methylpiperidin-1-yl)-8-(3-hydroxy-4-(trifluoromethoxy)phenyl)imidazolo [1,2-c]pyrimidin-7-yl)-2-fluorobenzonitrile]	12.4	23.5	–
N#Cc1ccc(-c2nc(N3CCC(N)CC3)n3ccnc3c2-c2ccc(C(F)(F)F)c(O)c2)cc1F [Example 154, 4-(5-(4-aminopiperidin-1-yl)-8-(3-hydroxy-4-(trifluoromethyl)phenyl)imidazolo [1,2-c]pyrimidin-7-yl)-2-fluorobenzonitrile carboxylate]	0.959	0.5 ± 0.1	–
